# Source: patent US9364566B2, “Aqueous formulation for selective targeting and delivering gene to cancer cells” (Council of Scientific and Industrial Research, priority 2006, dated 2016)
# Tested on: non-cancer cells
# Test: Toxicity to non-cancer cells
# Type: cell-based
# Conditions: at the concentration at which dexamethasone is used in the formulation
# From the text: In the context the present invention stands with complete patentability because the formulation uses our own patented cationic lipid along side a secondary co-lipid dexamethasone, and a common, generic, glucocorticoid. The dexamethasone is not modified at all and is used as such. […] The use of dexamethasone for the targeted gene delivery to cancer is not documented in any of these papers.
# Cell-Culture—MCF-7, CHO, A549 cells were purchased from National Center for Cell Sciences (Pune, India) and were mycoplasma free. Cells were cultured in DMEM medium (Sigma Chemical Co., St. Louis, Mo.) containing 10% fetal bovine serum (Sigma Chemical Co., St. Louis, Mo.) and 1% penicillin-streptomycin at […] in a humidified atmosphere of 5% CO2 in air. Cultures of 85-90% confluency were used for all of the experiments. The cells were trypsinized, counted, subcultured in 96-well plates for transfection and viability studies. The cells were allowed to adhere overnight before they were used for experiments.
structure (smiles),measurement,value
C[C@@H]1C[C@H]2[C@@H]3CCC4=CC(=O)C=C[C@]4(C)[C@@]3(F)[C@@H](O)C[C@]2(C)[C@@]1(O)C(=O)CO [dexamethasone],toxicity to non-cancer cells,did not induce any toxicity
